In PMC6382835, “A critical evaluation of TRPA1-mediated locomotor behavior in zebrafish as a screening tool for novel anti-nociceptive drug discovery” (Scientific Reports, 2019):

Tests used:
C57BL/6 mice = test: Von Frey test of mechanical hypersensitivity; format: in vivo, Mice (Mus musculus)
Description: We utilized WT C57BL/6 mice purchased from Envigo (Indianapolis, IN, USA). Total sixteen adult male mice (8–9 weeks, 22 ± 2 g) were housed in four ventilated Plexiglas cages (4 mice per cage). Four mice were tested in each group. Mice are maintained at temperature (21 °C) in an animal housing facility accredited by the Association for Assessment and Accreditation of Laboratory Animal Care with a reversed 12-hour dark-light cycle (lights off at 1000, lights on at 2200). This study was carried out in accordance with the recommendations of the National Institutes of Health Guide for the Care and Use of Laboratory Animals. The protocol (#1201000592 by Y.F.L. for Zebrafish, and #1605001408 by R.M.vR for mice) was approved by the Purdue University Institutional Animal Care and Use Committee.
Von Frey filaments (2.44 (0.04 g)–4.31 (2 g)) and a grid platform (#58011 and #57816, Stoelting, WI, USA) were used to test mechanical hypersensitivity of mice. A modified up-and-down method was utilized as previously described. […] Drug-induced mechanical hypersensitivity was measured 30 minutes after the second injection. […]
All data are presented as means ± standard error of the mean (SEM). For our in vitro statistical analysis, AUC of calcium influx (RFU) was measured to plot dose-response curves, which were further analyzed by nonlinear regression analysis. […] EC50 values of the dose-response curves were further used to plot Schild curves, and the curves were analyzed with linear regression analysis. For the mice von Frey test, mechanical thresholds were analyzed with two-way ANOVA followed by a Bonferonni test for multiple comparison analysis. […] AUC of all curves were measured and analyzed by one-way ANOVA. […] For our time-course average displacement graph, we used 2nd degree polynomial smoothing for a better representation; however, we used data before smoothing for all statistical analysis and quantification. All in vitro and in vivo data were evaluated using GraphPad Prism 7 (GraphPad Software, La Jolla, CA) unless it stated otherwise.

[1] = system: non-transfected HEK293 cells; test: FLIPR calcium signaling assay in non-transfected HEK293 cells (off-target effect); format: cell-based

| Structure (SMILES) | mechanical thresholds of von Frey filaments, pre- vs post-drug (C57BL/6 mice; ASP7663 1 mg/kg i.p., measured 30 minutes after injection) | pEC50 (off-target calcium response) [1] | EC50 ([1]; read-out: EC50 (off-target calcium response)) [µM] | block of ASP7663-induced mechanical hypersensitivity (C57BL/6 mice; HC-030031 100 mg/kg p.o. 30 min before ASP7663 1 mg/kg i.p.) | mechanical thresholds of von Frey filaments, pre- vs post-drug (C57BL/6 mice; HC-030031 100 mg/kg p.o. alone) | calcium influx by antagonist alone [1] |
| --- | --- | --- | --- | --- | --- | --- |
| CC(C)CN1C(=O)/C(=C/C(=O)O)c2cccc(F)c21 [ASP7663] | significantly decreased mechanical thresholds | 4.27 ± 0.03 | 54.1 | – | – | – |
| CC(C)c1ccc(NC(=O)Cn2cnc3c2c(=O)n(C)c(=O)n3C)cc1 [HC-030031] | – | – | – | blocked mechanical hypersensitivity induced by ASP7663 | did not show a statistical significance between pre- and post-drug mechanical thresholds | did not observe any calcium influx |
